Measured values published in patent US6399634B1, “Benzothiophene compounds, compositions, and methods” (Eli Lilly and Company, priority 1994, dated 2002).
“And” between values parts separate entries of the source, which are not always exact repeats. Identical values can stand only once. Counter-ions that a name gives are not always drawn.

Assays:
[1] = tested on: ovariectomized (OVX) rats; test: Uterine wet weight in ovariectomized rat post-menopausal model, 4 days of dosing; format: in vivo, Sprague Dawley rats; details: oral; for Uterine Weight (% increase vs. OVX): daily for 4 days
Method: In the examples illustrating the methods, a post-menopausal model was used in which effects of different treatments upon circulating lipids were determined.
(§1) Seventy-five day old female Sprague Dawley rats (weight range of 200 to 225 g) were obtained from Charles River Laboratories (Portage, Mich.). The animals were either bilaterally ovariectomized (OVX) or exposed to a Sham surgical procedure at Charles River Laboratories, and then shipped after one week. Upon arrival, they were housed in metal hanging cages in groups of 3 or 4 per cage and had ad libitum access to food (calcium content approximately 0.5%) and water for one week. Room temperature was maintained at 22.2°±1.7° C. with a minimum relative humidity of 40%. The photoperiod in the room was 12 hours light and 12 hours dark.
(§2) Dosing Regimen Tissue Collection. After a one week acclimation period (therefore, two weeks post-OVX) daily dosing with test compound was initiated. 17α-ethynyl estradiol or the test compound were given orally, unless otherwise stated, as a suspension in 1% carboxymethylcellulose or dissolved in 20% cyclodextrin. Animals were dosed daily for 4 days. Following the dosing regimen, animals were weighed and anesthetized with a ketamine: Xylazine (2:1, V:V) mixture and a blood sample was collected by cardiac puncture. The animals were then sacrificed by asphyxiation with CO2, the uterus was removed through a midline incision, and a wet uterine weight was determined.

[2] = tested on: Uterine Eosinophil Peroxidase (EPO); test: Uterine Eosinophil Peroxidase (EPO) Assay on uteri of dosed OVX rats; format: in vivo, Sprague Dawley rats; parameters: unit not given here
From the text: as §1, §2
Uterine Eosinophil Peroxidase (EPO) Assay. Uteri were kept at 4° C. until time of enzymatic analysis. The uteri were then homogenized in 50 volumes of 50 mM Tris buffer (pH−8.0) containing 0.005% Triton X-100. Upon addition of 0.01% hydrogen peroxide and 10 mM o-phenylenediamine (final concentrations) in Tris buffer, increase in absorbance was monitored for one minute at 450 nm. The presence of eosonophils in the uterus is an indication of estrogenic activity of a compound. The maximal velocity of a 15 second interval was determined over the initial, linear portion of the reaction curve.

[3] = tested on: ovariectomized (OVX) rats; test: Serum cholesterol analysis in ovariectomized rats, 4 days of dosing; format: in vivo, Sprague Dawley rats; details: oral; for Serum Cholesterol (% decrease vs. OVX): daily for 4 days
From the text: as §1, §2
Cholesterol Analysis. Blood samples were allowed to clot at room temperature for 2 hours, and serum was obtained following centrifugation for 10 minutes at 3000 rpm. Serum cholesterol was determined using a Boehringer Mannheim Diagnostics high performance cholesterol assay. Briefly the cholesterol was oxidized to cholest-4-en-3-one and hydrogen peroxide. The hydrogen peroxide was then reacted with phenol and 4-aminophenazone in the presence of peroxidase to produce a p-quinone imine dye, which was read spectrophotemetrically at 500 nm. Cholesterol concentration was then calculated against a standard curve. The entire assay was automated using a Biomek Automated Workstation.

[4] = tested on: ovariectomized (OVX) rats; test: Osteoporosis Test Procedure: femur bone density in OVX rats after 35 days of dosing; format: in vivo, Sprague Dawley rats; details: for Bone Density: 100 μg/kg, mean ± SEM
From the text: Seventy-five day old female Sprague Dawley rats (weight range of 200 to 225 g) were obtained from Charles River Laboratories (Portage, Mich.). The animals were either bilaterally ovariectomized (OVX) or exposed to a Sham surgical procedure at Charles River Laboratories, and then shipped after one week. Upon arrival, they were housed in metal hanging cages in groups of 3 or 4 per cage and had ad libitum access to food (calcium content approximately 0.5%) and water for one week. Room temperature was maintained at 22.2°±1.7° C. with a minimum relative humidity of 40%. The photoperiod in the room was 12 hours light and 12 hours dark. Following the General Preparation Procedure, infra, the rats were treated daily for 35 days (6 rats per treatment group) and sacrificed by decapitation on the 36th day. The 35 day time period was sufficient to allow maximal reduction in bone density, measured as described herein. At the time of sacrifice, the uteri were removed, dissected free of extraneous tissue, and the fluid contents were expelled before determination of wet weight in order to confirm estrogen deficiency associated with complete ovariectomy. […] The uteri were then placed in 10% neutral buffered formalin to allow for subsequent histological analysis. The right femurs were excised and scanned at the distal metaphysis 1 mm from the patellar groove with single photon absorptiometry. Results of the densitometer measurements represent a calculation of bone density as a function of the bone mineral content and bone width. In accordance with the above procedures, compounds of the present invention and ethynyl estradiol (EE2) in 20% hydroxypropyl β-cyclodextrin were orally administered to test animals. Data presented in Tables 5 and 6 below are the results of these treatments compared to intact and ovariectomized test animals. Results are reported as the mean±the standard error of the mean.

[5] = tested on: MCF-7 breast adenocarcinoma cells; test: MCF-7 Proliferation Assay (tritiated thymidine); format: cell-based; details: Homo sapiens, MCF7; MCF-7 cells, 48 hours with drug, tritiated thymidine pulse 4 hours
Method: MCF-7 breast adenocarcinoma cells (ATCC HTB 22) were maintained in MEM (minimal essential medium, phenol red-free, Sigma, St. Louis, Mo.) supplimented with 10% fetal bovine serum (FBS) (V/V), L-glutamine (2 mM), sodium pyruvate (1 mM), HEPES {(N-[2-hydroxyethyl]piperazine-N′-[2-ethanesulfonic acid]10 mM}, non-essential amino acids and bovine insulin (1 ug/mL) (maintenance medium). Ten days prior to assay, MCF-7 cells were switched to maintenance medium supplemented with 10% dextrancoated charcoal stripped fetal bovine serum (DCC-FBS) assay medium) in place of 10% FBS to deplete internal stores of steroids. MCF-7 cells were removed from maintenance flasks using cell dissociation medium (Ca++/Mg++ free HBSS (phenol red-free) supplemented with 10 mM HEPES and 2 mM EDTA). Cells were washed twice with assay medium and adjusted to 80,000 cells/mL. Approximately 100 μL (8,000 cells) were added to flat-bottom microculture wells (Costar 3596) and incubated at 37° C. in a 5% CO2 humidified incubator for 48 hours to allow for cell adherence and equilibration after transfer. Serial dilutions of drugs or DMSO as a diluent control were prepared in assay medium and 50 μL transferred to triplicate microcultures followed by 50 μL assay medium for a final volume of 200 μL. After an additional 48 hours at 37° C. in a 5% CO2 humidified incubator, microcultures were pulsed with tritiated thymidine (1 uCi/well) for 4 hours. Cultures were terminated by freezing at −70° C. for 24 hours followed by thawing and harvesting of microcultures using a Skatron Semiautomatic Cell Harvester. Samples were counted by liquid scintillation using a Wallac BetaPlace β counter. Results in Table 7 below show the IC50 for certain compounds of the present invention.

[6] = female, Sprague Dawley, rat, in vivo, po, 0.1 mg/kg, 4 days
[7] = female, Sprague Dawley, rat, in vivo, po, 1 mg/kg, 4 days
[8] = female, Sprague Dawley, rat, in vivo, po, 10 mg/kg, 4 days

SMILES	Uterine Weight (% increase vs. OVX) ([1]; dose 0.1 mg/kg)	Uterine Weight (% increase vs. OVX) ([1]; dose 1.0 mg/kg)	Uterine Weight (% increase vs. OVX) ([1]; dose 10.0 mg/kg)	Uterine EPO (V. max) [2, 6]	Uterine EPO (V. max) [2, 7]	Uterine EPO (V. max) [2, 8]	Serum Cholesterol (% decrease vs. OVX) ([3]; dose 0.1 mg/kg)	Serum Cholesterol (% decrease vs. OVX) ([3]; dose 1.0 mg/kg)	Serum Cholesterol (% decrease vs. OVX) ([3]; dose 10.0 mg/kg)	Effect on uterine weight compared to ovariectomized test animals (in words) ([1]; EE2 at 0.1 mg/Kg/day)	Uterine EPO (V. max) ([2]; OVX rats, oral, daily for 4 days, dose 0.1 mg/kg)	Effect on serum cholesterol compared to ovariectomized control animals (in words) ([3]; EE2 at 0.1 mg/Kg/day)	Bone Density ([4]; Table 5, oral, OVX control 26.18, intact control 70.22, * P <= 0.05)	Bone Density ([4]; Table 6, oral, OVX control 32.46, intact control 81.27, * P <= 0.05)	Prevention of femur bone loss caused by ovariectomy (in words) ([4]; oral)	IC50 [5]
Oc1ccc(-c2sc3cc(O)ccc3c2Cc2ccc(OCCN3CCCCC3)cc2)cc1 [(k)-Ex11, [6-Hydroxy-2-(4-Hydroxyphenyl)Benzo[B]Thien-3-Yl][4-[2-(1-Piperidinyl)Ethoxy]Phenyl]Methane Hydrochloride]	4.0%	23.1%	5.2%	7.3	4.8	5.5	43.7%	63.0%	60.7%							
C#C[C@]1(O)CC[C@H]2[C@@H]3CCc4cc(O)ccc4[C@H]3CC[C@@]21C [EE2, 17α-ethynyl estradiol, reference compound]	111.5% and 178.3%						89.5% and 91.8%			substantially greater than the uterine weight of ovariectomized test animals	246.0 and 173.3	decrease in serum cholesterol	47.94 ± 3.71 mg/cm/cm	47.31 ± 6.42 mg/cm/cm	prevented this loss	
Oc1ccc(-c2sc3cc(O)ccc3c2C(O)c2ccc(OCCN3CCCCC3)cc2)cc1 (centres unmarked) [(b)-Ex2, [6-Hydroxy-2-(4-Hydroxyphenyl)Benzo[B]Thien-3-Yl][4-[2-(1-Piperidinyl)Ethoxy]Phenyl]Methanol]	52.2%	39.1%	45.6%	7.4	4.7	14.5	22.2%	43.5%	61.6%							
O=C(Oc1ccc(-c2sc3cc(OC(=O)c4ccccc4)ccc3c2Cc2ccc(OCCN3CCCCC3)cc2)cc1)c1ccccc1 [(s)-Ex21, [6-Benzoyloxy-2-(4-Benzoyloxyphenyl)Benzo[B]Thien-3-Yl][4-[2-{1-Piperidinyl}Ethoxy]Phenyl]Methane]	−19.6%	−28.7%	−26.6%	1.8	2.6	2.3	66.2%	63.4%	64.4%							0.01 nM
C[C@]12CC[C@@H]3c4ccc(O)cc4CC[C@H]3[C@@H]1CCC2=O [Estrone, reference compound]																1 nM
CCCCS(=O)(=O)Oc1ccc(-c2sc3cc(OS(=O)(=O)CCCC)ccc3c2Cc2ccc(OCCN3CCCCC3)cc2)cc1 [(r)-Ex18, [6-{n-Butylsulfonoyloxy}-2-(4-{n-Butylsulfonoyloxy}Phenyl)Benzo[B]Thien-3-Yl][4-[2-(1-Piperidinyl)Ethoxy]Phenyl]Methane Hydrochloride]	−16.6%	−18.4%	−19.5%	1.8	3.5	2.8	65.4%	67.0%	67.9%							1000 nM
